Test results as given in patent US20080267888A1, “Heterocyclic Derivatives” (priority 2005, published 2008).

Key:
[1] = system: Streptozotocin induced diabetic mice; experiment: Antidiabetic activity in streptozotocin induced diabetic mice; assay type: in vivo, Swiss albino mice; conditions: plasma, 50 mg/kg oral for 7 days, female mice, vs control group
Experimental: Antidiabetic Activity in Streptozotocin Induced Diabetic Mice
Female Swiss albino mice, at the age of 10 weeks were used in the study. Diabetes was induced in the animals by injecting streptozotocin by i.p. route at a dose of 200-mg/kg-body weight. 48 hours after streptozotocin administration, the animals were kept fasting for 6 hours. Subsequently blood was collected, plasma separated and the glucose was estimated. Animals showing greater than 200 mg/dl glucose levels were considered as diabetic and these animals were randomly distributed into various groups. The compounds 2 listed in the table 3 were administered at a dose of 50-mg/kg body weight by oral route for 7 days. Later the animals were fasted for 6 hours, the blood was collected and the plasma was separated. Biochemical estimations like glucose, cholesterol and triglycerides were carried out using the plasma. The effect of the compounds mentioned in the table was expressed in terms of percentage reduction in biochemical values as compared to the control group.

[2] = molecular target: T1, DPP IV (Homo sapiens, UniProt P27487); experiment: DPP IV assay with human plasma as source of DPP IV; assay type: biochemical; conditions: 1 hr incubation, substrate H-gly-pro AMC, vs vehicle control
T1 construct: using human plasma as a source of DPP IV; from tissue; host or cells: human plasma
T1 sequence (P27487 39-766 limits assumed): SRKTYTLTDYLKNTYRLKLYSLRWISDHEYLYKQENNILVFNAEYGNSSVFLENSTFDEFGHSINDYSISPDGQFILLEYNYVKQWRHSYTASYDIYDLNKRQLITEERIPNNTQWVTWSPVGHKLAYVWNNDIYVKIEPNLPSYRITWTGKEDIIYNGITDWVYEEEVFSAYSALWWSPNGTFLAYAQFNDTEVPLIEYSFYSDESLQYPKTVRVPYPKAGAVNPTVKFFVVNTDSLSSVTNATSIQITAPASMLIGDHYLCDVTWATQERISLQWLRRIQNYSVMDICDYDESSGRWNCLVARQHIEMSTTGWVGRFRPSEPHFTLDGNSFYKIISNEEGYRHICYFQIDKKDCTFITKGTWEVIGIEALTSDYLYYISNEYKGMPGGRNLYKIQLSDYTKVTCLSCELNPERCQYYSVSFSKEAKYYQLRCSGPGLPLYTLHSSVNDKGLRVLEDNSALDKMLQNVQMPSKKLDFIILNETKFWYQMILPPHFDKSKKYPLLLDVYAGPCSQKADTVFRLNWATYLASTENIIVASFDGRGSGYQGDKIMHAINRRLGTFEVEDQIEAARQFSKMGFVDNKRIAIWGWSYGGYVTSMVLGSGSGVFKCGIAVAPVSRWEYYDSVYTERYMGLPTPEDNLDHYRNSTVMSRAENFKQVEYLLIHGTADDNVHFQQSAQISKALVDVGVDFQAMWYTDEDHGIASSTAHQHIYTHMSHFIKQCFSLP
Experimental: DPP IV assay is carried by using human plasma as a source of DPP IV. The compounds were incubated at a concentration of 1 and 10 μM in an assay buffer containing the DPP IV enzyme for 1 hr, and then the substrate H-gly-pro AMC was added and further incubated for 20 minutes. Subsequently the reaction was stopped on addition of 25% glacial acetic acid. The plates were read in a spectrofluorimeter to get RFU on setting the excitation wavelength of 360 nm and emission wavelength of 460 nm. The percentage inhibition is calculated as compared to the vehicle control.

| inhibition at 1 µM [2] | inhibition at 10 µM [2] | Compound | % Reduction Glucose [1] | % Reduction Triglyceride [1] |
| --- | --- | --- | --- | --- |
| 6.3% | 7.5% | O=C1COCC(Cc2ccc(Oc3ccc(/C=C4/C(=O)Nc5ccccc54)cc3Cl)cc2)N1 (stereo not shown) [Example 9] |  |  |
| 12.1% | 9.1% | O=C1COCC(Cc2ccc(Oc3ccc(/C=C4/C(=O)Nc5ccccc54)cc3F)cc2)N1 (stereo not shown) [Example 15] |  |  |
| 7.3% | 11.8% | O=C1COCC(Cc2ccc(Oc3ccc(/C=C4\SC(=S)NC4=O)cc3C(F)(F)F)cc2)N1 (stereo not shown) [Example 18, 5-(4-{4-[(4-oxo-2-thioxo-1,3-thiazolidin-5-ylidene)methyl]-2-(trifluoromethyl)phenoxy}benzyl)morpholin-3-one] |  |  |
| 8.9% | 15.2% | CN1C(=O)COCC1Cc1ccc(Oc2ccc(/C=C3\SC(=O)NC3=O)cc2)cc1 (stereo not shown) [Example 19, 5-(4-{4-[(4-methyl-5-oxomorpholin-3-yl)methyl]phenoxy}benzylidene)-1,3-thiazolidine-2,4-dione] |  |  |

Second part, the molecule before the results:

| Compound | inhibition at 1 µM [2] | inhibition at 10 µM [2] | % Reduction Glucose [1] | % Reduction Triglyceride [1] |
| --- | --- | --- | --- | --- |
| O=C1COCC(Cc2ccc(Oc3ccc(/C=C4\SC(=O)NC4=O)cc3)cc2)N1 (stereo not shown) [Example 1, 5-[4-(4-{[5-oxomorpholin-3-yl]methyl}phenoxy)benzylidene]-1,3-thiazolidine-2,4-dione] |  |  | 41.6% |  |
| O=C1COCC(Cc2ccc(Oc3ccc(/C=C4\SC(=S)NC4=O)cc3)cc2)N1 (stereo not shown) [Example 2, 5-(4-{4-[(4-oxo-2-thioxo-1,3-thiazolidin-5-ylidene)methyl]phenoxy}benzyl)morpholin-3-one] |  |  | 42.6% | 44.4% |
| O=C1COCC(Cc2ccc(Oc3ccc(/C=C4\SC(=O)NC4=O)cc3Cl)cc2)N1 (stereo not shown) [Example 7, 5-(3-chloro-4-{4-[(5-oxomorpholin-3-yl)methyl]phenoxy}benzylidene)-1,3-thiazolidine-2,4-dione] |  |  | 44.5% | 60.9% |
